Measured values taken from article PMC7529893, “Structural basis for substrate recognition and chemical inhibition of oncogenic MAGE ubiquitin ligases” (Nature Communications, 2020).

Biological target: T1, MAGE-A11:PCF11 interaction (GST-MAGE-A11 and FAM-PCF11_4) (Homo sapiens, UniProt P43364)
T1 construct: GST-MAGE-A11 MHD (human MAGE-A11 MHD amino acid 218-429); made in house; host or cells: E. coli BL21(DE3)
T1 sequence (P43364 218-429): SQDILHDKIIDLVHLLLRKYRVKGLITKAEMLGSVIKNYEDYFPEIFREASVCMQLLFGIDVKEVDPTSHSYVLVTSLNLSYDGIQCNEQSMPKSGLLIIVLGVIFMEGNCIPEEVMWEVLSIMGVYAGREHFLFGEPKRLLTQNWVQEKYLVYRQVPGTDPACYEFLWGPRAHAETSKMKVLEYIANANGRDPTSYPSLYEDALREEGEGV
Experiment: TR-FRET primary / single point screen at 15 µM
Assay type: binding
Outline: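 Single-point screen at 15 µM final compound in 50 mM Tris pH 7.5, 20 mM MgCl2, 0.1 mg/ml BSA, 1 mM DTT, with 200 nM FAM-PCF11_4, 5 nM Tb-anti-GST and 5 nM GST-MAGE-A11. After 90 min at room temperature, the 520/490 nm TR-FRET ratio (340 nm excitation) gave %Inhibition against no-MAGE-A11 and DMSO controls.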

[1] = single point TR-FRET screening of quinoline compounds against MAGE-A11:PCF11, 15 µM
[2] = single point TR-FRET screening of 797 quinoline compounds against MAGE-A11:PCF11

Row | SMILES | percent inhibition (TR-FRET) [1] | percent inhibition (TR-FRET) [2]
1 | Clc1ccc2c(NCCCNCc3nc4ccccc4s3)ccnc2c1 [SJ000521034] | 4.695 | 
2 | Clc1ccc2c(NCCCNCc3cncc(Br)c3)ccnc2c1 [SJ000521037] | 7.014 | 
3 | Clc1ccc2c(NCCCNCC3CCOC3)ccnc2c1 (stereo not drawn) [SJ000521038] | 0.4026 | 
4 | Cn1ccnc1CNCCCNc1ccnc2cc(Cl)ccc12 [SJ000521040] | 1.449 | 
5 | Cn1cccc1CNCCCNc1ccnc2cc(C(F)(F)F)ccc12 [SJ000521041] | -6.879 | 
6 | FC(F)(F)c1ccc2c(NCCCNCc3cccnc3)ccnc2c1 [SJ000521042] | 15.0359 | 
7 | Cn1cc(CNCCCNc2ccnc3cc(C(F)(F)F)ccc23)c2ccccc21 [SJ000521043] | 29.109 | 
8 | COC(=O)CCCCCNCCCNc1ccnc2cc(C(F)(F)F)ccc12 [SJ000521044] | 19.5869 | 
9 | FC(F)(F)c1ccc2c(NCCCNCc3nccs3)ccnc2c1 [SJ000521046] | 7.779 | 
10 | CC(C)(C)CCNCCCNc1ccnc2cc(C(F)(F)F)ccc12 [SJ000521053] | 27.3587 | 
11 | CCCCNCCCNc1ccnc2cc(C(F)(F)F)ccc12 [SJ000521055] | 18.5367 | 
12 | FC(F)(F)c1ccc2c(NCCCNCc3cc(Br)cs3)ccnc2c1 [SJ000521056] | 32.7178 | 
13 | FC(F)(F)c1ccc2c(NCCCNCc3cc4ccccc4o3)ccnc2c1 [SJ000521057] | 27.4843 | 
14 | FC(F)(F)c1ccc2c(NCCCNCc3cc4ccccc4s3)ccnc2c1 [SJ000521060] | 35.6327 | 
15 | FC(F)(F)c1ccc2c(NCCCNCc3csc4ccccc34)ccnc2c1 [SJ000521061] | 41.8599 | 
16 | FC(F)(F)c1ccc2c(NCCCNCc3nc4ccccc4s3)ccnc2c1 [SJ000521062] | 14.4336 | 
17 | FC(F)(F)c1ccc2c(NCCCNCC3CCOC3)ccnc2c1 (stereo not drawn) [SJ000521065] | 15.5598 | 
18 | Cn1ccnc1CNCCCNc1ccnc2cc(C(F)(F)F)ccc12 [SJ000521068] | 10.1938 | 
19 | Clc1ccc2c(NCCCN(Cc3ccccc3)Cc3ccc[nH]3)ccnc2c1 [SJ000522717] | 20.4621 | 
20 | Clc1ccc2c(NCCCCN(Cc3ccccc3)Cc3ccccc3)ccnc2c1 [SJ000522718] |  | 17.3464
21 | Clc1ccc2c(NCCCN(Cc3ccccc3)Cc3ccc4c(c3)OCO4)ccnc2c1 [SJ000522719] | 9.001 | 
22 | COc1ccc(CN(CCCNc2ccnc3cc(Cl)ccc23)Cc2ccccc2)cc1 [SJ000522720] | 11.7837 | 
23 | Fc1ccc(CN(CCCNc2ccnc3cc(Cl)ccc23)Cc2ccccc2)cc1 [SJ000522721] | 18.0772 | 
24 | COc1ccccc1CN(CCCNc1ccnc2cc(Cl)ccc12)Cc1ccccc1 [SJ000522722] | 4.43 | 

Row | SMILES | percent inhibition (TR-FRET) [1] | percent inhibition (TR-FRET) [2]
25 | Clc1ccc2c(NCCCCN(Cc3ccccc3)Cc3ccc4c(c3)OCO4)ccnc2c1 [SJ000522723] |  | 16.5062
26 | COc1ccc(CN(CCCCNc2ccnc3cc(Cl)ccc23)Cc2ccccc2)cc1 [SJ000522724] |  | 6.683
27 | Fc1ccc(CN(CCCCNc2ccnc3cc(Cl)ccc23)Cc2ccccc2)cc1 [SJ000522725] |  | 30.2004
28 | COc1ccccc1CN(CCCCNc1ccnc2cc(Cl)ccc12)Cc1ccccc1 [SJ000522726] |  | 19.4021
29 | CN(C)c1ccc(CN(CCCCNc2ccnc3cc(Cl)ccc23)Cc2ccccc2)cc1 [SJ000522727] |  | 21.522
30 | COc1ccc(CN(CCCCNc2ccnc3cc(Cl)ccc23)Cc2ccccc2)cc1OC [SJ000522728] |  | 0.05797
31 | Clc1ccc2c(NCCCCN(CCCc3ccccc3)Cc3ccccc3)ccnc2c1 [SJ000522729] |  | 27.8155
32 | CCCN(CCCNc1c2ccc(Cl)cc2nc2ccc(OC)cc12)CCCSC [SJ000522730] | 0.7867 | 
33 | CCCN(CCCNc1c2ccc(Cl)cc2nc2ccc(OC)cc12)CCC(C)c1ccccc1 (stereo not drawn) [SJ000522731] |  | -120.975
34 | CCCN(CCCNc1c2ccc(Cl)cc2nc2ccc(OC)cc12)Cc1ccc2[nH]ccc2c1 [SJ000522732] | 39.4714 | 
35 | CCCN(CCCNc1c2ccc(Cl)cc2nc2ccc(OC)cc12)Cc1c(F)cccc1OC [SJ000522733] |  | -187.09
36 | CCCN(CCCNc1c2ccc(Cl)cc2nc2ccc(OC)cc12)Cc1c(F)c(F)c(F)c(F)c1F [SJ000522734] | -2.258 | 
37 | CCCN(CCCNc1c2ccc(Cl)cc2nc2ccc(OC)cc12)Cc1ccc([N+](=O)[O-])s1 [SJ000522735] |  | -154.43
38 | CCCN(CCCNc1c2ccc(Cl)cc2nc2ccc(OC)cc12)Cc1cn(C(C)=O)c2ccccc12 [SJ000522736] |  | -192.351
39 | CCCN(CCCNc1c2ccc(Cl)cc2nc2ccc(OC)cc12)Cc1cc2ccccc2nc1Cl [SJ000522737] | -83.7446 | 
40 | CCCN(CCCNc1c2ccc(Cl)cc2nc2ccc(OC)cc12)Cc1ccc(Cl)c([N+](=O)[O-])c1 [SJ000522738] | -71.0252 | 
41 | CCCN(CCCNc1c2ccc(Cl)cc2nc2ccc(OC)cc12)Cc1cccc(C#N)c1 [SJ000522739] | -94.5429 | 
42 | CCCN(CCCNc1c2ccc(Cl)cc2nc2ccc(OC)cc12)Cc1ccc(-c2ccccc2)cc1 [SJ000522740] | -74.0063 | 
43 | CN(C)c1ccc(CN(CCCNc2ccnc3cc(Cl)ccc23)Cc2ccccc2)cc1 [SJ000522741] | 14.7648 | 
44 | COc1ccc(CN(CCCNc2ccnc3cc(Cl)ccc23)Cc2ccccc2)cc1OC [SJ000522742] | -0.5383 | 
45 | CCCN(CCCNc1ccnc2cc(Cl)ccc12)Cc1ccccn1 [SJ000522743] | 1.3128 | 
46 | CCCN(CCCNc1ccnc2cc(Cl)ccc12)Cc1ccsc1 [SJ000522744] | 7.824 | 
47 | CCCN(CCCNc1ccnc2cc(Cl)ccc12)Cc1ccccc1C(F)(F)F [SJ000522745] | -38.0341 | 
48 | CCCN(CCCNc1ccnc2cc(Cl)ccc12)Cc1ccc2[nH]ccc2c1 [SJ000522746] | 96.845 | 

Row | SMILES | percent inhibition (TR-FRET) [1] | percent inhibition (TR-FRET) [2]
49 | CCCN(CCCNc1ccnc2cc(Cl)ccc12)Cc1ccccc1N [SJ000522747] | 15.4273 | 
50 | CCCN(CCCNc1ccnc2cc(Cl)ccc12)Cc1c(F)c(F)c(F)c(F)c1F [SJ000522748] | 19.8658 | 
51 | CCCN(CCCNc1ccnc2cc(Cl)ccc12)Cc1c(C)cc(C)cc1C [SJ000522749] | 35.4339 | 
52 | CCCN(CCCNc1ccnc2cc(Cl)ccc12)Cc1ccc([N+](=O)[O-])s1 [SJ000522750] | 9.134 | 
53 | CCCN(CCCNc1ccnc2cc(Cl)ccc12)CC1CCCCC1 [SJ000522751] | 15.626 | 
54 | CCCN(CCCNc1ccnc2cc(Cl)ccc12)CC(CC)CC [SJ000522752] | 14.1686 | 
55 | CCCN(CCCNc1ccnc2cc(Cl)ccc12)Cc1ccc2c(c1)OCO2 [SJ000522753] | 18.7467 | 
56 | CCCCCN(CCC)CCCNc1ccnc2cc(Cl)ccc12 [SJ000522754] | 16.2885 | 
57 | CCCN(CCCNc1ccnc2cc(Cl)ccc12)Cc1c(C)n(C)n(-c2ccccc2)c1=O [SJ000522755] | 13.6386 | 
58 | CCCN(CCCNc1ccnc2cc(Cl)ccc12)Cc1ccc(OC)cc1 [SJ000522756] | 19.1371 | 
59 | CCCN(CCCNc1ccnc2cc(Cl)ccc12)Cc1ccccc1F [SJ000522757] | 21.9858 | 
60 | CCCN(CCCNc1ccnc2cc(Cl)ccc12)Cc1cccc(F)c1 [SJ000522758] | 27.418 | 
61 | CCCN(CCCNc1ccnc2cc(Cl)ccc12)Cc1ccc(F)cc1 [SJ000522759] | 20.7933 | 
62 | CCCN(CCCNc1ccnc2cc(Cl)ccc12)Cc1cc2ccccc2nc1Cl [SJ000522760] | 12.7954 | 
63 | CCCN(CCCNc1ccnc2cc(Cl)ccc12)Cc1ccc(Cl)c([N+](=O)[O-])c1 [SJ000522761] | 16.951 | 
64 | CCCN(CCCNc1ccnc2cc(Cl)ccc12)Cc1c2ccccc2cc2ccccc12 [SJ000522762] | 15.4935 | 
65 | CCCN(CCCNc1ccnc2cc(Cl)ccc12)Cc1cccc(C#N)c1 [SJ000522763] | 12.9099 | 
66 | COc1ccc2nc3cc(Cl)ccc3c(NCCCNCc3cccc(C)c3)c2c1 [SJ000522956] | -7.0891 | 
67 | COC(=O)c1ccc(CNCCCNc2c3ccc(Cl)cc3nc3ccc(OC)cc23)cc1 [SJ000522957] |  | -133.032
68 | COc1ccc2nc3cc(Cl)ccc3c(NCCCNCc3ccc(Cl)cc3Cl)c2c1 [SJ000522958] |  | -97.8295
69 | COc1ccc2nc3cc(Cl)ccc3c(NCCCNCc3ccc(-c4cccc(Cl)c4)o3)c2c1 [SJ000522959] | -47.4182 | 
70 | COc1ccc2nc3cc(Cl)ccc3c(NCCCNCc3c(Cl)ccc(Cl)c3Cl)c2c1 [SJ000522960] | -81.4922 | 
71 | CCCN(CCCNc1c2ccc(Cl)cc2nc2ccc(OC)cc12)Cc1ccccc1OC(F)(F)F [SJ000522961] | 22.6913 | 
72 | CCCN(CCCNc1c2ccc(Cl)cc2nc2ccc(OC)cc12)Cc1cc2ccccc2s1 [SJ000522962] | -21.5824 | 
